# In PubChem BioAssay AID194 (DTP/NCI, 2004):
# Where “and” joins values, the source holds several entries; their conditions need not be identical. Equal values may be shown once. Inconclusive results are not listed.
# System: BDF1 mice, B16 melanoma s.c., survival/tumor T/C
# Assay: NCI In Vivo Anticancer Drug Screen. Data for tumor model B16 Melanoma (subcutaneous) in B6D2F1 (BDF1) mice
# Protocol: The antitumor activity of compounds was measured in mice bearing transplantable tumors. Survival or tumor size were measured and the results are expressed as the measurement made in the treated group (T) divided by the measurement made in the vehicle treated control group (C). The tumor model used in this assay is B16 Melanoma (subcutaneous) in B6D2F1 (BDF1) mice
# [1] = endpoint: median survival time, dose: 4.0 mg/kg/injection, schedule: Q01DX009 (ip), vehicle: saline, higher = longer survival
# [2] = endpoint: median survival time, dose: 16.0 mg/kg/injection, schedule: Q01DX009 (ip), vehicle: saline, higher = longer survival
# [3] = endpoint: median survival time, dose: 32.0 mg/kg/injection, schedule: Q01DX009 (ip), vehicle: saline, higher = longer survival
# [4] = endpoint: median survival time, dose: 64.0 mg/kg/injection, schedule: Q01DX009 (ip), vehicle: saline, higher = longer survival
# [5] = endpoint: median survival time, dose: 1.25 mg/kg/injection, schedule: Q01DX009 (ip), vehicle: Klucel (hydroxypropylcellulose) (HPC), higher = longer survival
# [6] = endpoint: median survival time, dose: 2.5 mg/kg/injection, schedule: Q01DX009 (ip), vehicle: Klucel (hydroxypropylcellulose) (HPC), higher = longer survival
# [7] = endpoint: median survival time, dose: 5.0 mg/kg/injection, schedule: Q01DX009 (ip), vehicle: Klucel (hydroxypropylcellulose) (HPC), higher = longer survival
# [8] = endpoint: median survival time, dose: 10.0 mg/kg/injection, schedule: Q01DX009 (ip), vehicle: Klucel (hydroxypropylcellulose) (HPC), higher = longer survival
smiles,measurement,setting,value
C[CH2][Ge]1([CH2]C)[CH2]CC2(CCN(CCCN(C)C)C2)C[CH2]1,T/C,"endpoint: median survival time, dose: 2.0 mg/kg/injection, schedule: Q02DX009 (ip), vehicle: saline, higher = longer survival",96 % of control
same,T/C,[1],98 % of control
same,T/C,"endpoint: median survival time, dose: 4.0 mg/kg/injection, schedule: Q02DX009 (ip), vehicle: saline, higher = longer survival",110 % of control
same,T/C,"endpoint: median survival time, dose: 8.0 mg/kg/injection, schedule: Q01DX009 (ip), vehicle: saline, higher = longer survival",101 % of control
same,T/C,"endpoint: median survival time, dose: 8.0 mg/kg/injection, schedule: Q02DX009 (ip), vehicle: saline, higher = longer survival",102 % of control
same,T/C,[2],98 % of control
same,T/C,"endpoint: median survival time, dose: 16.0 mg/kg/injection, schedule: Q02DX009 (ip), vehicle: saline, higher = longer survival",111 % of control
same,T/C,[3],112 % of control
same,T/C,"endpoint: median survival time, dose: 32.0 mg/kg/injection, schedule: Q02DX009 (ip), vehicle: saline, higher = longer survival",109 % of control
same,T/C,[4],97 % of control
CC/C(=C(/CC)c1ccc(O)cc1)c1ccc(O)cc1,T/C,"endpoint: median survival time, dose: 6.0 mg/kg/injection, schedule: Q01DX009 (ip), vehicle: Klucel (hydroxypropylcellulose) (HPC), higher = longer survival",93 % of control
same,T/C,"endpoint: median survival time, dose: 12.0 mg/kg/injection, schedule: Q01DX009 (ip), vehicle: Klucel (hydroxypropylcellulose) (HPC), higher = longer survival",100 % of control
same,T/C,"endpoint: median survival time, dose: 24.0 mg/kg/injection, schedule: Q01DX009 (ip), vehicle: Klucel (hydroxypropylcellulose) (HPC), higher = longer survival",106 % of control
same,T/C,"endpoint: median survival time, dose: 48.0 mg/kg/injection, schedule: Q01DX009 (ip), vehicle: Klucel (hydroxypropylcellulose) (HPC), higher = longer survival",97 % of control
C/C=C(\C)C(=O)O[C@@H]1c2cc3c(cc2-c2c(cc(OC)c(OC)c2OC)[C@@H]2C(=O)OC[C@@H]12)OCO3,T/C,[5],109 % of control
same,T/C,[6],101 % of control
same,T/C,[7],109 % of control
same,T/C,[8],101 % of control
O=C1CSC(=S)N1c1ccco1,T/C,"endpoint: median survival time, dose: 50.0 mg/kg/injection, schedule: Q01DX009 (ip), vehicle: Klucel (hydroxypropylcellulose) (HPC), higher = longer survival",111 % of control
same,T/C,"endpoint: median survival time, dose: 400.0 mg/kg/injection, schedule: Q01DX009 (ip), vehicle: Klucel (hydroxypropylcellulose) (HPC), higher = longer survival",118 % of control
O=[N+]([O-])O.[Ga],T/C,[1],109 % of control
same,T/C,[2],91 % of control
same,T/C,[3],86 % of control
same,T/C,"endpoint: median survival time, dose: 40.0 mg/kg/injection, schedule: Q01DX009 (ip), vehicle: saline, higher = longer survival",99 % of control
same,T/C,[4],95 % of control
same,T/C,"endpoint: median survival time, dose: 90.0 mg/kg/injection, schedule: Q01DX009 (ip), vehicle: saline, higher = longer survival",104 % of control
same,T/C,"endpoint: median survival time, dose: 200.0 mg/kg/injection, schedule: Q04DX003 (ip), vehicle: saline, higher = longer survival",99 % of control
same,T/C,"endpoint: median survival time, dose: 400.0 mg/kg/injection, schedule: Q01DX001 (ip), vehicle: saline, higher = longer survival",100 % of control
same,T/C,"endpoint: median survival time, dose: 600.0 mg/kg/injection, schedule: Q01DX001 (ip), vehicle: saline, higher = longer survival",100 % of control
COc1cc2c(c(OC)c1OC)-c1cc3c(cc1[C@@H](OC(C)=O)[C@@H]1COC(=O)[C@H]1C2)OCO3,T/C,"endpoint: median survival time, dose: 0.62 mg/kg/injection, schedule: Q01DX009 (ip), vehicle: Klucel (hydroxypropylcellulose) (HPC), higher = longer survival",100 % of control
same,T/C,[5],88 % of control and 89 % of control
same,T/C,[6],97 % of control
same,T/C,[7],105 % of control and 116 % of control
same,T/C,[8],109 % of control
O=C(O)CC(NC(=O)CP(=O)(O)O)C(=O)O (centres undefined),T/C,"endpoint: median survival time, dose: 153.0 mg/kg/injection, schedule: Q01DX009 (ip), vehicle: saline, higher = longer survival",110 % of control
same,T/C,"endpoint: median survival time, dose: 1140.0 mg/kg/injection, schedule: Q01DX001 (ip), vehicle: saline, higher = longer survival",114 % of control
CCCCCCCC(=O)OCC(=O)[C@]1(O)Cc2c(O)c3c(c(O)c2[C@@H](OC2CC(N)C(O)C(C)O2)C1)C(=O)c1c(OC)cccc1C3=O (some centres undefined),T/C,"endpoint: median survival time, dose: 0.5 mg/kg/injection, schedule: Q01DX009 (ip), vehicle: saline with Tween-80, higher = longer survival",98 % of control
same,T/C,"endpoint: median survival time, dose: 1.0 mg/kg/injection, schedule: Q01DX009 (ip), vehicle: saline with Tween-80, higher = longer survival",109 % of control
CC1(C)CC(O)(C(Cl)c2ccccc2)C(=O)c2ccccc21 (centres undefined),T/C,"endpoint: median survival time, dose: 88.0 mg/kg/injection, schedule: Q01DX009 (ip), vehicle: distilled water + Tween-80, higher = longer survival",96 % of control
same,T/C,"endpoint: median survival time, dose: 133.0 mg/kg/injection, schedule: Q01DX009 (ip), vehicle: distilled water + Tween-80, higher = longer survival",97 % of control
same,T/C,"endpoint: median survival time, dose: 200.0 mg/kg/injection, schedule: Q01DX009 (ip), vehicle: distilled water + Tween-80, higher = longer survival",93 % of control
same,T/C,"endpoint: median survival time, dose: 300.0 mg/kg/injection, schedule: Q01DX009 (ip), vehicle: distilled water + Tween-80, higher = longer survival",89 % of control
same,T/C,"endpoint: median tumor weight (est.), dose: 133.0 mg/kg/injection, schedule: Q01DX009 (ip), vehicle: distilled water + Tween-80, higher = larger tumour",71 % of control
same,T/C,"endpoint: median tumor weight (est.), dose: 200.0 mg/kg/injection, schedule: Q01DX009 (ip), vehicle: distilled water + Tween-80, higher = larger tumour",106 % of control
same,T/C,"endpoint: median tumor weight (est.), dose: 300.0 mg/kg/injection, schedule: Q01DX009 (ip), vehicle: distilled water + Tween-80, higher = larger tumour",91 % of control
O=C(O)CCCCC1CCSS1 (centres undefined),T/C,"endpoint: median survival time, dose: 7.81 mg/kg/injection, schedule: Q01DX009 (ip), vehicle: Klucel (hydroxypropylcellulose) (HPC), higher = longer survival",116 % of control and 117 % of control
same,T/C,"endpoint: median survival time, dose: 15.62 mg/kg/injection, schedule: Q01DX009 (ip), vehicle: Klucel (hydroxypropylcellulose) (HPC), higher = longer survival",112 % of control and 116 % of control
same,T/C,"endpoint: median survival time, dose: 125.0 mg/kg/injection, schedule: Q01DX009 (ip), vehicle: Klucel (hydroxypropylcellulose) (HPC), higher = longer survival",99 % of control and 100 % of control
NCCc1ccc(O)c(O)c1,T/C,"endpoint: median survival time, dose: 100.0 mg/kg/injection, schedule: Q01DX009 (ip), vehicle: saline, higher = longer survival",107 % of control
same,T/C,"endpoint: median survival time, dose: 200.0 mg/kg/injection, schedule: Q01DX009 (ip), vehicle: saline, higher = longer survival",106 % of control
same,T/C,"endpoint: median survival time, dose: 400.0 mg/kg/injection, schedule: Q01DX009 (ip), vehicle: saline, higher = longer survival",97 % of control
same,T/C,"endpoint: median survival time, dose: 600.0 mg/kg/injection, schedule: Q01DX009 (ip), vehicle: saline, higher = longer survival",110 % of control
COc1cccc2c1C(=O)c1c(O)c3c(c(O)c1C2=O)CC(O)(C(C)=O)CC3OC1CC(N)C(O)C(C)O1 (centres undefined),T/C,"endpoint: median survival time, dose: 5.8 mg/kg/injection, schedule: Q01DX009 (ip), vehicle: saline, higher = longer survival",107 % of control
same,T/C,"endpoint: median survival time, dose: 11.7 mg/kg/injection, schedule: Q01DX009 (ip), vehicle: saline, higher = longer survival",103 % of control
same,T/C,"endpoint: median survival time, dose: 23.4 mg/kg/injection, schedule: Q01DX009 (ip), vehicle: saline, higher = longer survival",120 % of control
CNc1nc(N(C)C)nc(N(C)C)n1,T/C,"endpoint: median survival time, dose: 67.0 mg/kg/injection, schedule: Q01DX009 (ip), vehicle: water, higher = longer survival",112 % of control
same,T/C,"endpoint: median survival time, dose: 100.0 mg/kg/injection, schedule: Q04DX003 (ip), vehicle: water, higher = longer survival",96 % of control
same,T/C,"endpoint: median survival time, dose: 150.0 mg/kg/injection, schedule: Q04DX003 (ip), vehicle: water, higher = longer survival",95 % of control
same,T/C,"endpoint: median survival time, dose: 225.0 mg/kg/injection, schedule: Q04DX003 (ip), vehicle: water, higher = longer survival",90 % of control
CCC1(O)CC2CN(CCc3c([nH]c4ccccc34)C(C(=O)OC)(c3cc4c(cc3OC)N(C)C3C(O)(C(N)=O)C(O)C5(CC)C=CCN6CCC43C65)C2)C1 (centres undefined) (tested in a mixture with another compound),T/C,"endpoint: median survival time, dose: 1.8 mg/kg/injection, schedule: Q04DX003 (ip), vehicle: water, higher = longer survival",87 % of control
CC1(C)N=C(N)N=C(N)N1c1ccc(CNC(=O)Nc2cccc(S(=O)(=O)F)c2)cc1,T/C,"endpoint: median survival time, dose: 100.0 mg/kg/injection, schedule: Q04DX003 (ip), vehicle: saline, higher = longer survival",100 % of control
same,T/C,"endpoint: median survival time, dose: 225.0 mg/kg/injection, schedule: Q04DX003 (ip), vehicle: saline, higher = longer survival",122 % of control
CSCCC(N)C(=O)O (centres undefined),T/C,"endpoint: median survival time, dose: 40.0 mg/kg/injection, schedule: Q01DX009 (ip), vehicle: Klucel (hydroxypropylcellulose) (HPC), higher = longer survival",108 % of control
same,T/C,"endpoint: median survival time, dose: 80.0 mg/kg/injection, schedule: Q01DX009 (ip), vehicle: Klucel (hydroxypropylcellulose) (HPC), higher = longer survival",97 % of control
same,T/C,"endpoint: median survival time, dose: 160.0 mg/kg/injection, schedule: Q01DX009 (ip), vehicle: Klucel (hydroxypropylcellulose) (HPC), higher = longer survival",97 % of control
same,T/C,"endpoint: median survival time, dose: 320.0 mg/kg/injection, schedule: Q01DX009 (ip), vehicle: Klucel (hydroxypropylcellulose) (HPC), higher = longer survival",122 % of control
COc1cccc2c1C(=O)c1c(O)c3c(c(O)c1C2=O)C[C@@](O)(C(=O)CO)C[C@@H]3OC1CC(N)C(O)C(C)O1 (some centres undefined),T/C,"endpoint: median survival time, dose: 0.12 mg/kg/injection, schedule: Q01DX009 (ip), vehicle: saline, higher = longer survival",100 % of control and 111 % of control
same,T/C,"endpoint: median survival time, dose: 1.0 mg/kg/injection, schedule: Q01DX008 (ip), vehicle: saline, higher = longer survival",100 % of control
same,T/C,"endpoint: median survival time, dose: 1.5 mg/kg/injection, schedule: Q01DX008 (ip), vehicle: saline, higher = longer survival",96 % of control
